From US9452990B2, “Complement pathway modulators and uses thereof” (NOVARTIS AG, priority 2012, dated 2016)
Where a name gives a salt, the structure may show the parent alone. Read-outs that look alike come from different tables or passages of the source.

Molecular target: human complement factor B (CVF-Bb complex) (Homo sapiens (Human), UniProt P00751)
Assay: Human Complement Factor B ELISA Assay
Format: biochemical
Outline: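 Preformed CVF-Bb complex (3 nM; cobra venom factor with recombinant human factors B and D) preincubated with compound 1 h, RT, in PBS pH 7.4, 10 mM MgCl2, 0.05% CHAPS. Plasma C3 added at 1 μM final for 1 h, then stopped; C3a product measured by ELISA, IC50 from % inhibition.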

[1] = CVF-Bb complex 3 nM, 1 hour preincubation with compound at room temperature, human C3 substrate 1 μM, C3a quantified by ELISA, read-out: Factor B IC50

COCCN[C@H](CC(=O)N1CCN(c2nc(N)c3cc(OC)c(OC)c(F)c3n2)CC1)c1ccc(F)cc1 [Example 100, (R)-1-[4-(4-Amino-8-fluoro-6,7-dimethoxy-quinazolin-2-yl)-piperazin-1-yl]-3-(4-fluoro-phenyl)-3-(2-methoxy-ethylamino)-propan-1-one]
IC50 [1]: 20 nM

COc1cc2c(N)nc(N3CCN(C(=O)C[C@@H](NC(C)C)c4ccc(F)cn4)CC3)nc2c(F)c1OC [Example 101, (R)-1-[4-(4-Amino-8-fluoro-6,7-dimethoxy-quinazolin-2-yl)-piperazin-1-yl]-3-(5-fluoro-pyridin-2-yl)-3-isopropylamino-propan-1-one]
IC50 [1]: 13 nM

COc1cc2c(N)nc(N3CCN(C(=O)C[C@@H](NCC4(C)COC4)c4ccc(C#N)cc4)CC3)nc2c(F)c1OC [Example 102]
IC50 [1]: 1 nM

COc1cc2c(N)nc(N3CCN(C(=O)C[C@H](c4ccc(F)cc4)N4CCCC4)CC3)nc2c(F)c1OC [Example 103]
IC50 [1]: 15 nM

COc1cc2c(N)nc(N3CCN(C(=O)[C@@H]4CCc5ccccc5[C@@H]4N)CC3)nc2c(F)c1OC [Example 104, [4-(4-Amino-8-fluoro-6,7-dimethoxy-quinazolin-2-yl)-piperazin-1-yl]-((1R,2R)-1-amino-1,2,3,4-tetrahydro-naphthalen-2-yl)-methanone]
IC50 [1]: 760 nM

COc1cc2c(N)nc(N3CCN(C(=O)[C@@H]4CCc5ccccc5[C@@H]4N)C[C@@H]3C)nc2c(F)c1OC [Example 105, [(S)-4-(4-Amino-8-fluoro-6,7-dimethoxy-quinazolin-2-yl)-3-methyl-piperazin-1-yl]-((1R,2R)-1-amino-1,2,3,4-tetrahydro-naphthalen-2-yl)-methanone]
IC50 [1]: 1070 nM

CC[C@H]1CN(C(=O)[C@@H]2CCc3ccccc3[C@@H]2N)CCN1c1nc(N)c2cc(OC)c(OC)c(F)c2n1 [Example 106, [(S)-4-(4-Amino-8-fluoro-6,7-dimethoxy-quinazolin-2-yl)-3-ethyl-piperazin-1-yl]-((1R,2R)-1-amino-1,2,3,4-tetrahydro-naphthalen-2-yl)-methanone]
IC50 [1]: 2660 nM

COc1cc2c(N)nc(N3CCN(C(=O)[C@@H]4CCc5ccccc5[C@@H]4N)C[C@@H]3c3ccccc3)nc2c(F)c1OC [Example 107, [(S)-4-(4-Amino-8-fluoro-6,7-dimethoxy-quinazolin-2-yl)-3-phenyl-piperazin-1-yl]-((1R,2R)-1-amino-1,2,3,4-tetrahydro-naphthalen-2-yl)-methanone]
IC50 [1]: 240 nM

COc1cc2c(N)nc(N3CCN(C(=O)C[C@@H]4CCCN4CC(C)C)CC3)nc2c(F)c1OC [Example 108, (S)-1-(4-(4-amino-8-fluoro-6,7-dimethoxyquinazolin-2-yl)piperazin-1-yl)-2-(1-isobutylpyrrolidin-2-yl)ethanone]
IC50 [1]: 170 nM

COc1cc2c(N)nc(N3CCN(C(=O)C[C@@H]4CCN4)CC3)nc2c(F)c1OC [Example 109, 1-[4-(4-Amino-8-fluoro-6,7-dimethoxy-quinazolin-2-yl)-piperazin-1-yl]-2-(S)-azetidin-2-yl-ethanone]
IC50 [1]: 4270 nM

COc1cc2c(N)nc(N3CCN(C(=O)C[C@@H]4CCCN4)CC3)nc2c(F)c1OC [Example 110, 1-[4-(4-Amino-8-fluoro-6,7-dimethoxy-quinazolin-2-yl)-piperazin-1-yl]-2-(S)-pyrrolidin-2-yl-ethanone]
IC50 [1]: 140 nM

COc1cc2c(N)nc(N3CCN(C(=O)C[C@@H]4CC[C@H](c5ccccc5)N4)CC3)nc2c(F)c1OC [Example 111, 1-[4-(4-Amino-8-fluoro-6,7-dimethoxy-quinazolin-2-yl)-piperazin-1-yl]-2-((2S,5R)-5-phenyl-pyrrolidin-2-yl)-ethanone]
IC50 [1]: 380 nM

COc1cc2c(N)nc(N3CCN(C(=O)CC4NCc5ccccc54)CC3)nc2c(F)c1OC (centres unmarked) [Example 112, 1-[4-(4-Amino-8-fluoro-6,7-dimethoxy-quinazolin-2-yl)-piperazin-1-yl]-2-(2,3-dihydro-1H-isoindol-1-yl)-ethanone]
IC50 [1]: 350 nM

COc1cc2c(N)nc(N3CCN(C(=O)C[C@@H]4CCCCN4)CC3)nc2c(F)c1OC [Example 113, 1-[4-(4-Amino-8-fluoro-6,7-dimethoxy-quinazolin-2-yl)-piperazin-1-yl]-2-(S)-piperidin-2-yl-ethanone]
IC50 [1]: 230 nM

COc1cc2c(N)nc(N3CCN(C(=O)C[C@@H]4CCCNC4)CC3)nc2c(F)c1OC [Example 114, 1-[4-(4-Amino-8-fluoro-6,7-dimethoxy-quinazolin-2-yl)-piperazin-1-yl]-2-(S)-piperidin-3-yl-ethanone]
IC50 [1]: 3870 nM

COc1cc2c(N)nc(N3CCN(C(=O)C[C@@H]4CCCN4)C[C@@H]3C)nc2c(F)c1OC [Example 115, 1-[(S)-4-(4-Amino-8-fluoro-6,7-dimethoxy-quinazolin-2-yl)-3-methyl-piperazin-1-yl]-2-(S)-pyrrolidin-2-yl-ethanone]
IC50 [1]: 320 nM

CC[C@H]1CN(C(=O)C[C@@H]2CCCN2)CCN1c1nc(N)c2cc(OC)c(OC)c(F)c2n1 [Example 116, 1-[(S)-4-(4-Amino-8-fluoro-6,7-dimethoxy-quinazolin-2-yl)-3-ethyl-piperazin-1-yl]-2-(S)-pyrrolidin-2-yl-ethanone]
IC50 [1]: 540 nM

CC[C@H]1CN(C(=O)C[C@@H]2CCCCN2)CCN1c1nc(N)c2cc(OC)c(OC)c(F)c2n1 [Example 117, 1-[(S)-4-(4-Amino-8-fluoro-6,7-dimethoxy-quinazolin-2-yl)-3-ethyl-piperazin-1-yl]-2-(S)-piperidin-2-yl-ethanone]
IC50 [1]: 780 nM

CCC[C@H]1CN(C(=O)C[C@@H]2CCCN2)CCN1c1nc(N)c2cc(OC)c(OC)c(F)c2n1 [Example 118, 1-[(S)-4-(4-Amino-8-fluoro-6,7-dimethoxy-quinazolin-2-yl)-3-propyl-piperazin-1-yl]-2-(S)-pyrrolidin-2-yl-ethanone]
IC50 [1]: 270 nM

COc1cc2c(N)nc(N3CCN(C(=O)C[C@@H]4CCN4)C[C@@H]3c3ccccc3)nc2c(F)c1OC [Example 119, 1-[(S)-4-(4-Amino-8-fluoro-6,7-dimethoxy-quinazolin-2-yl)-3-phenyl-piperazin-1-yl]-2-(S)-azetidin-2-yl-ethanone hydrochloride]
IC50: 610 nM

COc1cc2c(N)nc(N3CCN(C(=O)C[C@@H]4CCCN4)C[C@@H]3c3ccccc3)nc2c(F)c1OC [Example 120, 1-[(S)-4-(4-Amino-8-fluoro-6,7-dimethoxy-quinazolin-2-yl)-3-phenyl-piperazin-1-yl]-2-(S)-pyrrolidin-2-yl-ethanone]
IC50 [1]: 80 nM

COc1cc2c(N)nc(N3CCN(C(=O)C[C@@H]4CCCCN4)C[C@@H]3c3ccccc3)nc2c(F)c1OC [Example 121, 1-[(S)-4-(4-Amino-8-fluoro-6,7-dimethoxy-quinazolin-2-yl)-3-phenyl-piperazin-1-yl]-2-(S)-piperidin-2-yl-ethanone]
IC50 [1]: 20 nM

COc1cc2c(N)nc(N3CCN(C(=O)C[C@@H]4CCCNC4)C[C@@H]3c3ccccc3)nc2c(F)c1OC [Example 122, 1-[(S)-4-(4-Amino-8-fluoro-6,7-dimethoxy-quinazolin-2-yl)-3-phenyl-piperazin-1-yl]-2-(S)-piperidin-3-yl-ethanone]
IC50 [1]: 200 nM

COc1cc2c(N)nc(N3CCN(C(=O)CC4CNCCO4)C[C@@H]3c3ccccc3)nc2c(F)c1OC (stereo partly drawn) [Example 123, 1-[(S)-4-(4-Amino-8-fluoro-6,7-dimethoxy-quinazolin-2-yl)-3-phenyl-piperazin-1-yl]-2-morpholin-2-yl-ethanone]
IC50 [1]: 890 nM

COCCOc1c(OC)cc2c(N)nc(N3CCN(C(=O)C[C@@H]4CCCN4)CC3)nc2c1F [Example 124, 1-{4-[4-Amino-8-fluoro-6-methoxy-7-(2-methoxy-ethoxy)-quinazolin-2-yl]-piperazin-1-yl}-2-(S)-pyrrolidin-2-yl-ethanone]
IC50 [1]: 5950 nM

COCCOc1c(OC)cc2c(N)nc(N3CCN(C(=O)C[C@@H]4CCCCN4)CC3)nc2c1F [Example 125, 1-{4-[4-Amino-8-fluoro-6-methoxy-7-(2-methoxy-ethoxy)-quinazolin-2-yl]-piperazin-1-yl}-2-(S)-piperidin-2-yl-ethanone]
IC50 [1]: 9950 nM

COc1cc2c(N)nc(N3CCN(C(=O)C[C@@H]4CCCCN4)CC3)nc2c(C#N)c1OC [Example 126, (S)-4-Amino-6,7-dimethoxy-2-(4-(2-(piperidin-2-yl)acetyl)piperazin-1-yl)quinazoline-8-carbonitrile]
IC50 [1]: 2900 nM

COc1cc2c(N)nc(N3CCN(C(=O)C[C@H]4NCCc5ccccc54)CC3)nc2c(F)c1OC [Example 127, 1-[4-(4-Amino-8-fluoro-6,7-dimethoxy-quinazolin-2-yl)-piperazin-1-yl]-2-(R)-1,2,3,4-tetrahydro-isoquinolin-1-yl-ethanone]
IC50 [1]: 200 nM

COc1cc2c(N)nc(N3CCN(C(=O)CC4NCCc5cc(F)ccc54)CC3)nc2c(F)c1OC (centres unmarked) [Example 128, 1-[4-(4-Amino-8-fluoro-6,7-dimethoxy-quinazolin-2-yl)-piperazin-1-yl]-2-(6-fluoro-1,2,3,4-tetrahydro-isoquinolin-1-yl)-ethanone]
IC50 [1]: 120 nM

COc1cc2c(N)nc(N3CCN(C(=O)C[C@@H](CN)c4ccccc4)CC3)nc2c(F)c1OC [Example 129, (R)-4-Amino-1-[4-(4-amino-8-fluoro-6,7-dimethoxy-quinazolin-2-yl)-piperazin-1-yl]-3-phenyl-butan-1-one]
IC50 [1]: 710 nM

COc1cc2c(N)nc(N3CCN(C(=O)C[C@@H](C(N)=O)c4ccc(F)cc4)CC3)nc2c(F)c1OC [Example 130, (R)-4-[4-(4-Amino-8-fluoro-6,7-dimethoxy-quinazolin-2-yl)-piperazin-1-yl]-2-(4-fluoro-phenyl)-4-oxo-butyramide]
IC50 [1]: 10 nM

[2H]C([2H])([2H])C([2H])([2H])N[C@H](CC(=O)N1CCN(c2nc(N)c3cc(OC)c(OC)c(F)c3n2)CC1)c1ccc(F)cc1 [Example 131, (R)-1-(4-(4-amino-8-fluoro-6,7-dimethoxyquinazolin-2-yl)piperazin-1-yl)-3-(1,1,2,2,2-d^5 ethylamino)-3-(4-fluorophenyl)propan-1-one]
IC50 [1]: 3 nM
